# Results as given in patent US20240398771A1, “TREATMENT OF SCLERODERMA AND RAYNAUD'S SYNDROME” (Aisa Pharma, Inc., priority 2023, published 2024).
# Entries after “also recorded” stand apart in the source; their conditions may differ.
# Columns and labels:
# participants with SSc-RP [1] = experiment: SHAQ Visual Analog Scale - Raynaud's; format: in vivo, human; design: Visual Analog Scale-Raynaud's, Baseline, Mean / Visual Analog Scale-Raynaud's, Baseline, Median / Visual Analog Scale-Raynaud's, In Clinic Visit (Day 12), Mean / Visual Analog Scale-Raynaud's, In Clinic Visit (Day 12), Median: scale not given here; settings: Modified ITT, Part A
# Description: The SHAQ includes a Raynaud's VAS, which will be reported at screening and each in-clinic visit. The absolute change in Raynaud-VAS, assessed by the participants response to the SHAQ question ‘In the past 7 days, how much have your Raynaud's interfered with your daily activities?’ at baseline and the end of each dosing period will be calculated similar to frequency data as before. […]
# participants with SSc-RP [2] = experiment: Adverse events and serious adverse events (safety, tolerability); format: in vivo
# Description: In this study, AEs and SAEs will be reported for all participants from the time of randomization until the completion of the Follow-up/EOS visit. Adverse events that are ongoing at the EOS visit will be marked as Not Recovered/Not resolved on the AE eCRF page.
# An AE is any event, side effect, or other untoward medical occurrence that occurs in conjunction with the use of a medicinal product in humans, whether or not considered to have a causal relationship to this treatment. An AE can, therefore, be any unfavorable and unintended sign (that could include a clinically significant abnormal laboratory finding), symptom, or disease temporally associated with the use of a medicinal product, whether or not considered related to the medicinal product.
# Severity of AEs will be graded by the Investigator as one of: • Mild (Grade 1): A type of AE that is usually transient and may require only minimal treatment or therapeutic intervention.
# An SAE is an AE occurring during any study phase (i.e. baseline, treatment, washout, or follow-up), and at any dose of the study drug (active or placebo), that fulfills one or more of the following: • Results in death • It is immediately life-threatening • It requires in participant hospitalization or prolongation of existing hospitalization • It results in persistent or significant disability or incapacity • Results in a congenital abnormality or birth defect • It is an important medical event that may jeopardize the participant or may require medical intervention to prevent one of the outcomes listed above.
# Adverse events will be coded using the most current version of the MedDRA® Version 22.0 or higher. The analysis of AEs will be based on the concept of treatment emergent AEs. Treatment emergent AEs will be tabulated by treatment group and will include the number of participants for whom the event occurred, the severity, and relationship to study drug. Treatment emergent AEs (TEAEs) leading to discontinuation and SAEs with onset after the start of study drug will also be summarized.
# Treatment-emergent AEs (TEAEs) are defined as AEs that occur or worsen after the dose of study drug. If the timing of the start of an AE could not be determined unambiguously from the start or end dates provided, it will be assumed to be a TEAE. An AE is considered related if the relationship to either of the study drug has been indicated as possibly or probably or definite related by the investigator. An AE leading to study withdrawal is defined as an AE that cause a subject early terminated from the study. AEs will be identified as emerging in the following parts: • TEAEs for Part A will be those that started during Part A (i.e., from the first dose in Part A to end of follow up of Part A) • TEAEs for Part B will be those that started during Part B (i.e., from the first dose in Part B to end of follow-up of Part B).
# • Incidence of treatment emergent adverse events (AEs) and serious adverse events (SAEs), including clinically significant vital signs. For Part A safety will be assessed from the time of randomization until 7 days following the last protocol dose. For Part B, participants will be followed for 28 days from the last study dose. • Serious adverse events will be monitored by a DSMB (Part A) and Drug Safety Officer (Part B) on an ongoing basis throughout the study. • Adverse events will be coded using the MedDRA and summarized by SOC, PT, and treatment group.
compound,measurement,setting,value
"COCCOC(=O)C1=C(C)NC(C)=C(C(=O)OC/C=C/c2ccccc2)C1c1cccc([N+](=O)[O-])c1 (centres unmarked) [Cilnidipine, 1,4-dihydro-2,6-dimethyl,4-(3-nitrophenyl)-3,5-pyridinedicarboxylic acid 2-methoxyethyl (2 E)-3-phenyl-2-propenyl ester]","Visual Analog Scale-Raynaud's, Baseline, Mean",participants with SSc-RP [1]; Cilnidipine 10 mg,1.600
same,"Visual Analog Scale-Raynaud's, Baseline, Median",participants with SSc-RP [1]; Cilnidipine 10 mg,1.000
same,"Visual Analog Scale-Raynaud's, Change from Baseline, Median",participants with SSc-RP [1]; Cilnidipine 10 mg,0.350
same,"Visual Analog Scale-Raynaud's, In Clinic Visit (Day 12), Median",participants with SSc-RP [1]; Cilnidipine 10 mg,1.700
same,"Visual Analog Scale-Raynaud's, Baseline, Mean",participants with SSc-RP [1]; Cilnidipine 20 mg,2.300
same,"Visual Analog Scale-Raynaud's, Baseline, Median",participants with SSc-RP [1]; Cilnidipine 20 mg,2.500
same,"Visual Analog Scale-Raynaud's, Change from Baseline, Median",participants with SSc-RP [1]; Cilnidipine 20 mg,−1.100
same,"Visual Analog Scale-Raynaud's, In Clinic Visit (Day 12), Median",participants with SSc-RP [1]; Cilnidipine 20 mg,1.100
same,"Visual Analog Scale-Raynaud's, Percent Change from Baseline, Median",participants with SSc-RP [1]; Cilnidipine 20 mg,−44.00%
same,Safety: withdrawals,participants with SSc-RP [2]; Cilnidipine 20 mg (n = 8),1 withdrawal
same,Safety: number of AE,"participants with SSc-RP [2]; Cilnidipine 20 mg (n = 8), HA-mild",1AE (HA-mild;
same,severity grade of adverse events,participants with SSc-RP [2]; Example 4,only Grade 1 Adverse Events (AEs) were reported; also recorded: only mild (Grade 1) adverse events occurred
same,tolerability,"participants with SSc-RP [2]; Example 4, 10 mg and 20 mg, alone or in combination with tadalafil",well tolerated; also recorded: good tolerability
same,overall adverse event rate / incidence of Adverse Events,"participants with SSc-RP [2]; Example 4, all patients who received any dose of cilnidipine (n=17)",17%
same,Safety: withdrawals,participants with SSc-RP [2]; Pooled Cilnidipine (n = 9),T); no withdrawals
same,Safety: number of AE,"participants with SSc-RP [2]; Pooled Cilnidipine (n = 9), AE in combo with T",1AE (in combo with
CN1CC(=O)N2[C@H](c3ccc4c(c3)OCO4)c3[nH]c4ccccc4c3C[C@@H]2C1=O [Tadalafil],"Visual Analog Scale-Raynaud's, Baseline, Median",participants with SSc-RP [1]; Tadalafil 5 mg,0.500
same,"Visual Analog Scale-Raynaud's, Change from Baseline, Median",participants with SSc-RP [1]; Tadalafil 5 mg,−0.150
same,"Visual Analog Scale-Raynaud's, In Clinic Visit (Day 12), Mean",participants with SSc-RP [1]; Tadalafil 5 mg,1.500
same,"Visual Analog Scale-Raynaud's, In Clinic Visit (Day 12), Median",participants with SSc-RP [1]; Tadalafil 5 mg,0.400
same,"Visual Analog Scale-Raynaud's, Percent Change from Baseline, Mean",participants with SSc-RP [1]; Tadalafil 5 mg,−20.78%
same,"Visual Analog Scale-Raynaud's, Percent Change from Baseline, Median",participants with SSc-RP [1]; Tadalafil 5 mg,−37.35%
same,Adverse Events (AEs): worst AE by group,participants with SSc-RP [2]; tadalafil monotherapy group,Worst AE in tadalafil
